Values quoted from earlier work as cited in patent US12435094B1, “Methods of preparing isomers, analogs, and synthetic derivatives from akuamma seeds” (priority 2024, dated 2025).

How the values were obtained:
mu opioid receptor (μOR) = mu opioid receptor (μOR) (Homo sapiens, UniProt P35372); conditions: background statement, no data shown
[1] = test system: animal models of antinociception; conditions: background statement, no data shown

Chain of mu opioid receptor (μOR) (P35372 whole entry, species assumed): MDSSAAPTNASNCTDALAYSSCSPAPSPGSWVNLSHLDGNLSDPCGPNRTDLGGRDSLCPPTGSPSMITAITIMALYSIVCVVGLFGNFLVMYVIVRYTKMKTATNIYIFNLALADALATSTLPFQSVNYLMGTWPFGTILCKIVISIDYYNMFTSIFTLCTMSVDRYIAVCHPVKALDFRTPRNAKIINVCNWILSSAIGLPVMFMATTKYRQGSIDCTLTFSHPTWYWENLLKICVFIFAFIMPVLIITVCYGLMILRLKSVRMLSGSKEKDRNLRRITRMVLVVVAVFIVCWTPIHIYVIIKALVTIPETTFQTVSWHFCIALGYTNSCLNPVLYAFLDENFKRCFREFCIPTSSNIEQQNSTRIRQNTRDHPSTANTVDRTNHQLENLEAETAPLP

Row | Compound | agonism of the mu opioid receptor (μOR) (mu opioid receptor (μOR)) | effects in animal models of antinociception [1]
1 | C/C=C1/CN2CC[C@@]34c5ccccc5N(C)[C@]35OCC4(C(=O)OC)[C@@H]1C[C@H]25 [pseudoakuammigine, Pseudoakuammigine] | weak agonists | minimal effects
2 | Akuammine | weak agonists | minimal effects
